One series has as its system sciatic nerve. Put plainly: Mouse sciatic nerve axotomy (SNA) model. It is filed as in vivo. Particulars: mice, Figure 2. From the text:
Methods: Mice were anesthetized with isoflurane, and the skin of the right hind limb was shaved and sterilized with iodine. An incision was made between the knee and hip joints, and the gluteal muscle was carefully separated using a pair of sterile surgical scissors. The sciatic nerve was cut proximally to the thigh with a pair of sterile surgical scissors, and a 1-2 mm segment of the nerve was removed to prevent axonal regeneration into the distal stump. The gluteal muscle was then placed back to its original anatomical position, and the overlying skin was reattached with surgical staples or sutures.
To examine the denervation of the neuromuscular junction (NMJ), the tibialis anterior muscles were dissected from perfused animals and fixed overnight with 4% paraformaldehyde/PBS at 4°C. Immunohistochemical staining was subsequently performed with Neurofilament-L antibody and Synapsin-1 antibody as well as acetylcholine receptor (AchR) markers. Finally, imaging was performed by laser confocal microscope Zeiss LSM710.

The nature of series [1]: Liver microsomal stability in vitro. It is filed as in vitro ADME. Particulars: liver microsomes, NADPH, 37 °C, 0-45 min. Here is the method:
100 mM K-Mg-buffer containing 5 mM MgCl2 was preheated. The spiking solution was prepared by adding 5 µL of 10 mM compound and reference stock solution to 95 µL of acetonitrile (ACN). 1.5 µL of 500 µM spiking solution and 18.75 µL of 20 mg/mL liver microsomes were added to 479.8 µL of K-Mg-buffer. NADPH stock solution (3 mM) was prepared by dissolving NADPH in K-Mg-buffer. 30 µL of 1.5 µM spiking solution containing microsomes was evenly dropped into the assay plate at different time points (0, 5, 15, 30, and 45 min), and pre-incubated at 37 °C for 5 min. At 0 min, 200 µL of ACN containing IS (internal standard, tolbutamid/terfenadine) was added to the wells, then 15 µL of NADPH stock solution (6 mM) was added. For the other time points, the reaction was initiated and timed by adding 15 µL of NADPH stock solution (6 mM) to the wells. The reaction was stopped by adding 200 µL of ACN containing IS to the corresponding plate wells at 5, 15, 30, and 45 min, respectively. After quenching, the plate was shaken at 600 rpm for 10 min and then centrifuged at 4000 rpm for 50 min. 80 µL of supernatant per well was pipetted to a 96-well sample plate containing 160 µL of pure water for UPLC/MS/MS analysis.

The next series deals with mouse primary neurons. In words: Neuronal injury model based on mouse primary neurons (axotomy, TUJ1 staining). Type of series: cell-based. Conditions: 0.3 µM, compared with the control I-5; axotomy at DIV 10, Figure 1. Here is the method:
Methods: Neocortices were dissected from the brains of newborn mice at DIV 0 (Day In Vitro 0), digested with 0.05% (w/v) trypsin/EDTA, and incubated at 37°C for 10 min. Neuronal cells obtained after digestion were seeded in cell culture dishes preincubated with poly-D-lysine in Neurobasal/B-27 medium (Neurobasal medium supplemented with 1% (v/v) B-27, 2 mM glutamine, 100 U/ml penicillin, and […] streptomycin). Starting from DIV 3, a half of the medium was replaced with fresh Neurobasal/B-27 medium every two days. At DIV 10, the cultures were subjected to axotomy and compound administration. The cells were fixed with 4% paraformaldehyde the day after axotomy and subjected to cell immunofluorescence staining for TUJ1. Confocal imaging of axons was performed using a Zeiss LSM710 laser confocal microscope.

The nature of series [2]: Pharmacokinetic evaluation in mice. It is filed as in vivo, CD1 mice. Particulars: plasma. As to the method: The test compound was dissolved in the vehicle to prepare a clear solution or a homogeneous suspension. Three mice (CD1 mice) per group were administered 2 mg/kg via the tail vein and 10 mg/kg orally (PO). Blood was collected at 0.083 h, 0.25 h, 0.5 h, 1 h, 2 h, 4 h, 8 h, and 24 h after intravenous administration, and at 0.083 h, 0.25 h, 0.5 h, 1 h, 2 h, 4 h, 8 h and 24 h after oral administration. Plasma samples were centrifuged, and the supernatant was collected to prepare samples for quantitative analysis by LC/MS/MS. Conclusion: At least some of the compounds of the present application (e.g., compound 25) have excellent pharmacokinetic properties in mice (including but not limited to Cl (clearance rate), T1/2 (half-life), Cmax (peak concentration), AUC (area under the drug-time curve), F (bioavailability), etc.). Table 6 The mouse PK properties of compound 25

The next series deals with T1, SARM1 (Homo sapiens, UniProt Q6SZW1).
T1 construct: 408-724 expression plasmid and vector-control customized by SinoBio; host or cells: NRK1-HEK293T cells, transient transfection; crude clarified lysate used as the enzyme
T1 sequence (Q6SZW1 408-724 limits assumed): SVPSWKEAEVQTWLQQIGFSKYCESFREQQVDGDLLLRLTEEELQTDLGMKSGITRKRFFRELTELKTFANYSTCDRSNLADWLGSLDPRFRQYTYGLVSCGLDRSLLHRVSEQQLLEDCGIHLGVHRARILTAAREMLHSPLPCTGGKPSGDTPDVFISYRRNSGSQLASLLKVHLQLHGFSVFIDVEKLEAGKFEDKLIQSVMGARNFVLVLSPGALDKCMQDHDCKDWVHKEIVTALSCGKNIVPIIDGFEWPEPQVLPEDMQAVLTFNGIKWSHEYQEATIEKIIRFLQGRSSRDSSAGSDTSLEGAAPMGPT
In words: In vitro enzyme inhibition activity (SAM-TIR lysate, NAD/ADPR by HPLC-MS/MS). Type of series: biochemical. Particulars: SAM-TIR lysate (SARM1 408-724) from NRK1-HEK293T cells; 25°C, 3 h with NAD. Here is the method:
NRK1-HEK293T cells were seeded at approximately 10 × 10^6 cells/plate into 150 mm culture dishes containing 25 mL of growth medium. […] At the time of transfection, 250 µL of nicotinamide riboside (100 mM) was added to each dish to minimize toxicity from SAM-TIR overexpression. 48 hours after the transfection, the cells were washed three to four times with cold PBS and collected. The cells were resuspended in 0.5 mL of PBS containing protease inhibitors. Cell lysates were prepared by sonication. The lysate was centrifuged at 12500 rpm for 10 min at 4°C to remove cell debris, and protein concentration was determined by bicinchoninic acid (BCA) assay and used to normalize lysate concentration. The aliquots of supernatant were stored at -80°C until use.
• 1) Transfer the compound dilutions into an assay plate by Echo 650; • 2) Add 10µl 2× SAM-TIR lysate to each well; • 3) Seal the assay plate, centrifuge at 1000rpm for 1min, and incubate at 25°C for 30min; • 4) Add 10µl 2× NAD to each well; • 5) Centrifuge at 1000rpm for 1min, and incubate at 25°C for 3h; • 6) Add 40µL trichloroacetic acid to each well to terminate the reaction, mix and shake for 30s, and centrifuge at 4000rpm for 10min; • 7) Take 40µL supernatant from each well and add appropriate amount of ammonia water to adjust the pH; • 8) Detect nicotinamide adenine dinucleotide (NAD) and adenosine diphosphate ribose (ADPR) by HPLC-MS/MS.

One may read the half-life as the time in which the quantity being followed falls by half. One may read the AUC(0-inf) as total exposure, with the tail of the curve extrapolated. As a reminder, the clearance is the volume of plasma or blood freed of the substance per unit of time. Read a low clearance as inefficient removal. By Cmax is commonly meant the peak of the concentration-time curve. The Tmax is the time from dosing to the highest level. As a reminder, the bioavailability is dose-corrected exposure relative to a reference, in per cent. As usually defined, the IC50 is the midpoint of a concentration-inhibition curve. High values mean weaker potency in that assay, low ones greater potency in that assay.

With `O=C1C(Cc2ccc(Cl)c(F)c2)CCCN1c1nc2c([nH]1)COc1cnccc1-2` (centres unmarked) [Cpd. 25], the “protection of axons from injury-induced axonal degeneration” value with sciatic nerve is listed as “significantly protect axons from injury-induced axonal degeneration”. The molecule further had a half-life in series [1] of 26.1 min. Besides, in the series on mouse primary neurons, the “neuron-protecting activity (axonal loss after axonal injury)” value is “stronger neuron-protecting activity”. In series [2] (mouse IV (2 mg/kg)), this molecule gave an AUC(0-inf) of 2210 ng·h/mL, a C0 of 2110 ng/mL, a clearance of 15.1 mL/min/kg and a half-life of 79.8 min. The Vd in series [2] (mouse IV (2 mg/kg), read-out: Vss) is 1.31 L/kg. Also, in series [2] (mouse PO (10 mg/kg)), the AUC(0-inf) came to 9820 ng·h/mL, the Cmax came out at 3000 ng/mL, the Tmax amounted to 25 min and the half-life was 110 min. The bioavailability in series [2] (mouse PO (10 mg/kg) vs IV (2 mg/kg)) is 89%. On SARM1, this molecule yielded an IC50 of under 150 nM.
